Test results published in US8344113B2, “Diagnostic tumor markers, drug screening for tumorigenesis inhibition, and compositions and methods for treatment of cancer” (Minerva Biotechnologies Corporation, priority 2000, dated 2013).

Target: T1, MGFR portion of the MUC1 receptor (His-PSMGFR) and ligand(s) in T47D lysate (Homo sapiens, UniProt P15941, R1131P)
T1 construct: made in house; host or cells: chemical synthesis (synthetic peptide)
T1 sequence (P15941 with tags, fused parts or gaps R1131P): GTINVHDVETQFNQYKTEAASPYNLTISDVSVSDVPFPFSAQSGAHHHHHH
Assay: Colloid color-change ligand binding assay with or without enzyme inhibitor
Type: biochemical
Conditions: T47D lysate treated with inhibitor, final concentration 3 mM
Procedure: To test the hypothesis that the MGFR portion of the MUC1 receptor is enzymatically modified prior to binding to its ligand(s), the drug screening assay described in Example 5a was performed in the presence or absence of an enzyme inhibitor, PMSF (phenylmethylsulfonyl fluoride; Sigma chemical Co. St. Louis Mo., USA). T47D cells, which are breast tumor cells that aberrantly express MUC1, were grown to 70% confluency, treated with trypsin to detach from the flask, and pelleted by centrifugation. A lysate was prepared as follows from the pellets of two T75 flasks. Cell pellets were resuspended in 300 μL phosphate buffer (10 mM sodium phosphate, 100 mM NaCl, pH 7.4). The lysate was divided into two parts. One aliquot of lysate was used as is. To the second aliquot was added 9 μL of a 100 mM stock solution to achieve a final concentration 3 mM. The lysates were frozen and thawed four times with 15 seconds of vigorous mixing after each thawing. Lysates were then pelleted by centrifugation and the supernatant collected. Lysates were diluted by adding 6.2 ml of phosphate buffer. The drug screening assay was then performed as described in Example 5a, with the exception that no drugs were added. Rather the ability of the ligand(s) in the lysate to bind to the MGFR in a multimeric way, which would result in the solution color to change to blue, was tested. […]

Question: For O=S(=O)(F)Cc1ccccc1 [PMSF, phenylmethylsulfonyl fluoride], which “Solution color change (ligand binding to His-PSMGFR colloids)” value is on record?
Answer: did not change color and remained pink
